Source: paper PMC9112332, “Structure-Based Design of α-Substituted Mercaptoacetamides as Inhibitors of the Virulence Factor LasB from Pseudomonas aeruginosa” (ACS Infectious Diseases, 2022)
Where two headings read alike, the source gives them in different places.

Tests used:
ColH-PD = ColH-PD (Hathewaya histolytica, UniProt Q46085); assay: biochemical; parameters: species or system C. histolyticum; conditions: for inhibition at 1 µM: read-out: % inh. of ColH-PD @1µM
MMP-1 = target: T1, MMP-1 (Homo sapiens, UniProt P03956); assay: Human off-target inhibition assay, MMP-1; assay type: biochemical
T1 sequence (P03956 100-469): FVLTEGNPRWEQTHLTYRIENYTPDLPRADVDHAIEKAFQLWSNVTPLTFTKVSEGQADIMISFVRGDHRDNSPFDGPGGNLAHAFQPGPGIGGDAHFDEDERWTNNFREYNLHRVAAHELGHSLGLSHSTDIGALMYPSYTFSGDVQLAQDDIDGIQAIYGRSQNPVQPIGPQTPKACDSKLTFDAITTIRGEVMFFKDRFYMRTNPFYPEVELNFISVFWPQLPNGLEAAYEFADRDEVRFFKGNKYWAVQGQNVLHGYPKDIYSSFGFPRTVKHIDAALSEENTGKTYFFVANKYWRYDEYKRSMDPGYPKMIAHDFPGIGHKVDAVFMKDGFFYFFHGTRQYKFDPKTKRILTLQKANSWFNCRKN

MMP-2 = target: T2, MMP-2 (Homo sapiens, UniProt P08253); assay: Human off-target inhibition assay, MMP-2; assay type: biochemical
T2 sequence (P08253 110-660): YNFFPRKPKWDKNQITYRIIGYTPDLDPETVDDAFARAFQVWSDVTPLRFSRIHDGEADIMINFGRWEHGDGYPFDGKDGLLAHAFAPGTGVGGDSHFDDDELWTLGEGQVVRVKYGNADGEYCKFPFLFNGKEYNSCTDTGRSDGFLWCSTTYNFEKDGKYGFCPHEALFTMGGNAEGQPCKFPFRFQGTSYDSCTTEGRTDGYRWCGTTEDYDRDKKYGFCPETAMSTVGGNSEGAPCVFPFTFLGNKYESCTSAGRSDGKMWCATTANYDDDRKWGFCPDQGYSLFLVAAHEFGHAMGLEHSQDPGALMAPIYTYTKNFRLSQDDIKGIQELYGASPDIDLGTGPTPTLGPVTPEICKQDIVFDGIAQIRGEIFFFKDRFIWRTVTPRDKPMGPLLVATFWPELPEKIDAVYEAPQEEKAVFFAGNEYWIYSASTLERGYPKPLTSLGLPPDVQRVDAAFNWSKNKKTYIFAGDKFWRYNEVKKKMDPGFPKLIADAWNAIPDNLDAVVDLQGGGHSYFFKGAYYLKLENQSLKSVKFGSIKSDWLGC

MMP-3 = MMP-3 (Homo sapiens, UniProt P08254); assay: Human off-target inhibition assay, MMP-3; assay type: biochemical
MMP-7 = target: T3, MMP-7 (Homo sapiens, UniProt P09237); assay: Human off-target inhibition assay, MMP-7; assay type: biochemical
T3 sequence (P09237 95-267): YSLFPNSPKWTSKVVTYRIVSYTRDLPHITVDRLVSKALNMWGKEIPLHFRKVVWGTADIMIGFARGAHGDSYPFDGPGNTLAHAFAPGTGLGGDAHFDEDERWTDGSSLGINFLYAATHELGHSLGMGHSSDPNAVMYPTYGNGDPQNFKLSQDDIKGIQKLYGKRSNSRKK

MMP-8 = MMP-8 (Homo sapiens, UniProt P22894); assay: Human off-target inhibition assay, MMP-8; assay type: biochemical
MMP-14 = MMP-14 (Homo sapiens, UniProt P50281); assay: Human off-target inhibition assay, MMP-14; assay type: biochemical
HDAC-3 = HDAC-3 (Homo sapiens, UniProt O15379); assay: Human off-target inhibition assay, HDAC-3; assay type: biochemical
Protocol: (§1) Table 3 Activities of Four LasB Inhibitors against the Selected MMPs (% of inhibition at 100 μM) and Further Human Off-Targets ^a | column: 3; 12; 13; 23

HDAC-8 = target: T4, HDAC-8 (Homo sapiens, UniProt Q9BY41); assay: Human off-target inhibition assay, HDAC-8; assay type: biochemical
T4 sequence (Q9BY41 1-377): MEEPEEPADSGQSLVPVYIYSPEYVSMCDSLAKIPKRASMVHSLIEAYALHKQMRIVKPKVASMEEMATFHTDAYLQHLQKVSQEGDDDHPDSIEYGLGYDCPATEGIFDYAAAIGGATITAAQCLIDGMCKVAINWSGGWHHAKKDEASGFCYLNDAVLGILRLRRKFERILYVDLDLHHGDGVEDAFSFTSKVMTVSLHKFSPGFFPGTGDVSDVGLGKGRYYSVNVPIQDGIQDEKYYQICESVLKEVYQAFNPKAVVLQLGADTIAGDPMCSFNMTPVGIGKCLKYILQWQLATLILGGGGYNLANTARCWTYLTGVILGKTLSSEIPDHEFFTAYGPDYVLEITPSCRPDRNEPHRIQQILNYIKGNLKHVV
Protocol: as §1

LasB = LasB (Pseudomonas aeruginosa, UniProt Q02RJ6); assay: LasB inhibition assay (FRET-based, in vitro)
Protocol: LasB Inhibition Assay. The purification of LasB from P. aeruginosa P14 supernatant as well
as the subsequent performance of the FRET-based in vitro inhibition assay was performed as
described previously.1 All samples were run in duplicate for each condition, and experiments
were performed independently at least twice.

ADAM17 = ADAM17 (Homo sapiens, UniProt P78536); assay: Human off-target inhibition assay, ADAM17 (TACE); assay type: biochemical
zebrafish embryos = assay: Zebrafish embryo toxicity (maximum tolerated concentration) assay; assay type: in vivo; conditions: for toxicity (larvae with toxicity signs): Table S2
[1] = system: A549 cells treated with ΔlasB PA14 supernatant; assay type: cell-based, human; conditions: 15% (v/v) ΔlasB PA14 supernatant, MTT
[2] = system: NHDF cells treated with wt PA14 supernatant; assay type: cell-based, human; conditions: 15% (v/v) wt PA14 supernatant; for effect on viability of NHDF cells treated with wt PA14 supernatant (in words): MTT
G. mellonella larvae = assay: In vivo Galleria mellonella virulence assay; conditions: compound with wt PA14 supernatant, after 6 days
[3] = system: A549 cells treated with wt PA14 supernatant; conditions: 15% (v/v) wt PA14 supernatant; for effect on viability of A549 cells treated with wt PA14 supernatant (in words): MTT
P. aeruginosa PA14 = assay: Antibacterial activity (MIC) assay; assay type: cell-based, Pseudomonas aeruginosa
[4] = Cytotoxicity assay, HepG2; assay type: cell-based; conditions: HepG2 cells; human hepatoma cell line
[5] = Cytotoxicity assay, HEK293; assay type: cell-based; conditions: HEK293 cells; human embryonic kidney cells
Cytotoxicity assay, A549 = assay type: cell-based; conditions: A549 cells; adenocarcinomic human alveolar basal epithelial cells
[6] = system: A549 cells treated with wt PA14 supernatant; assay: cells; conditions: Homo sapiens, A549, 24 h, read-out: increase in viability of A549 cells

Chain of MMP-8 (P22894 101-467): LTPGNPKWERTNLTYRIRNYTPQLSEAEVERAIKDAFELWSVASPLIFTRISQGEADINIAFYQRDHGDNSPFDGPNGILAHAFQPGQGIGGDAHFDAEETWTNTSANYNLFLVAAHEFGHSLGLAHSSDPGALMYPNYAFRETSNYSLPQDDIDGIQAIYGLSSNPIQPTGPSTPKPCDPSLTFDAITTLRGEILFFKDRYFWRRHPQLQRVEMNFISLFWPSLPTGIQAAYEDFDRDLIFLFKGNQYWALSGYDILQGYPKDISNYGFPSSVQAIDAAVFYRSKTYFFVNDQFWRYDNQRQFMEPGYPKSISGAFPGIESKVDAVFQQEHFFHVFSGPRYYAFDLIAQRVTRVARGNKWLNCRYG
Chain of HDAC-3 (O15379 whole entry): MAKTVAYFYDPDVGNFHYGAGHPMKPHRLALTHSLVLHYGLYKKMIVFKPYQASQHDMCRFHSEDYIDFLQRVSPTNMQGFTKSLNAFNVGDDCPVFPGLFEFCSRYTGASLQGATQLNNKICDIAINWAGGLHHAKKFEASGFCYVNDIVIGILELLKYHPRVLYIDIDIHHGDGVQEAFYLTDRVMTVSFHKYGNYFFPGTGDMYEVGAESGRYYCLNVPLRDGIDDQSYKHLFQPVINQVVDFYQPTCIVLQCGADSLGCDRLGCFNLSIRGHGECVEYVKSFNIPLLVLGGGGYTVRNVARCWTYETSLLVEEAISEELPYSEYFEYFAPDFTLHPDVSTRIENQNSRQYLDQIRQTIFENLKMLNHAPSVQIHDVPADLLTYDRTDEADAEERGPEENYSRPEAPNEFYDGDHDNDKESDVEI
Chain of HDAC-3 (Q9Y618 395-489 partner limits assumed): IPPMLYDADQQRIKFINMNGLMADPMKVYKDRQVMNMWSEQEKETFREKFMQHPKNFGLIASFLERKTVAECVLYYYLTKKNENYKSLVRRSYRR
Chain of MMP-3 (P08254 100-477): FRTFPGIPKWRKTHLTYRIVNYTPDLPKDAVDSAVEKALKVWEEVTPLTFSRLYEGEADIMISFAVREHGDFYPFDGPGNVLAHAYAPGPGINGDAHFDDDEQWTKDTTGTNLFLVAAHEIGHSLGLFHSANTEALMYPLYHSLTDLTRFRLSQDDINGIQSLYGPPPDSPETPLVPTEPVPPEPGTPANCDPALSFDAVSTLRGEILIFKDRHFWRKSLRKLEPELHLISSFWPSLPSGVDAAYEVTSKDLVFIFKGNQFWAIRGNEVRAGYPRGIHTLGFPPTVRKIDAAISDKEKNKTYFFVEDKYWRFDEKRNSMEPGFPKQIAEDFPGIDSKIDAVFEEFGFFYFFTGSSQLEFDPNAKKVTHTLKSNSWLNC
Chain of ColH-PD (Q46085 331-721 limits assumed): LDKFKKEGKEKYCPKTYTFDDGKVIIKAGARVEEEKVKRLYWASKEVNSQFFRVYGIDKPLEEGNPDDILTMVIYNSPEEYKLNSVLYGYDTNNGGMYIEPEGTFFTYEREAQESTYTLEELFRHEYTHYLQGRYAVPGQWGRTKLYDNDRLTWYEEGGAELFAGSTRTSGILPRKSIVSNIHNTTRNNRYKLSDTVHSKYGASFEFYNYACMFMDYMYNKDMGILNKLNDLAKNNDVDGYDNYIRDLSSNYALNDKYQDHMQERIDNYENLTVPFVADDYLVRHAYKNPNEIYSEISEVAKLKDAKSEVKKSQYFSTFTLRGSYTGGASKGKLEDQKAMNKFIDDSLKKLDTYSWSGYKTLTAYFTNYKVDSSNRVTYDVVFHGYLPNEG
Chain of LasB (Q02RJ6 198-498): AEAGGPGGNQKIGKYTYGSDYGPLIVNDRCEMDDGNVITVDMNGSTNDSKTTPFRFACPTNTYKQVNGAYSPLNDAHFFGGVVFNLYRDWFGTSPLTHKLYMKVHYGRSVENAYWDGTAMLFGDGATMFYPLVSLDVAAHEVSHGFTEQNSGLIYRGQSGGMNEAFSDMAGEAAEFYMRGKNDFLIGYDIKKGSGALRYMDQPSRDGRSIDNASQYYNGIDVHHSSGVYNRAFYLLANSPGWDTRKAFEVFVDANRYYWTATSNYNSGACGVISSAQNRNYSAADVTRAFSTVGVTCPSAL
Chain of ADAM17 (P78536 215-824): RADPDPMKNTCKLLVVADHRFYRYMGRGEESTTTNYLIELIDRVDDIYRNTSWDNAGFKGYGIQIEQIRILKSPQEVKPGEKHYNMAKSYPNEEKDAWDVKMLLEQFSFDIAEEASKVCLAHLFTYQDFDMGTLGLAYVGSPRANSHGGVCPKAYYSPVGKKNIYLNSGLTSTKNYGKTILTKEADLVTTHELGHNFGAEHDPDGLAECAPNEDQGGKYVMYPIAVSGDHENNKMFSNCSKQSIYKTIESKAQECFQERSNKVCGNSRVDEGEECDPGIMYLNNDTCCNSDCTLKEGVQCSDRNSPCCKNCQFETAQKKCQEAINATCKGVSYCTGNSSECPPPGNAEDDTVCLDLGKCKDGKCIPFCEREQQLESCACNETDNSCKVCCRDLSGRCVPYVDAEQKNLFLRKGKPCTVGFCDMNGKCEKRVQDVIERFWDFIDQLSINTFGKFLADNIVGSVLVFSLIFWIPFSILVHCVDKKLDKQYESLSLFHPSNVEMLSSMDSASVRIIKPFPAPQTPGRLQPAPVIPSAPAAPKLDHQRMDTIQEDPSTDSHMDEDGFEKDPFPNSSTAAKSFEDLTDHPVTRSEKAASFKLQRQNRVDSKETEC

## Cc1ccc(NC(=O)C(S)Cc2ccccc2)cc1 (centres unmarked) [Compound 3]
ColH-PD
  Ki: 50 ± 10 nM
MMP-1
  inhibition at 100 µM: < 10%
MMP-2
  inhibition at 100 µM: < 10%
MMP-3
  inhibition at 100 µM: < 10%
MMP-7
  inhibition at 100 µM: < 10%
MMP-8
  inhibition at 100 µM: < 10%
MMP-14
  inhibition at 100 µM: < 10%
HDAC-3
  IC50: > 100000 nM
HDAC-8
  IC50: > 100000 nM
LasB; LasB IC50 ratio vs compound 4
  boost in potency compared to compound 4: 12 fold
LasB; calculated from LasB activity
  ligand efficiency (LE): 0.43
  lipophilic ligand efficiency (LLE): 2.37

## O=C(Nc1ccccc1)C(S)Cc1ccccc1 (centres unmarked) [Compound 5]
ColH-PD
  Ki: 400 ± 40 nM
LasB; read-out: IC50 against LasB, mean and SD of at least two independent experiments
  IC50: 1200 ± 100 nM

## O=C(Nc1ccc([N+](=O)[O-])cc1)C(S)Cc1ccccc1 (centres unmarked) [Compound 11]
ColH-PD
  inhibition at 1 µM: 88 ± 2%
LasB
  IC50: 1000 ± 100 nM

## COc1ccc(NC(=O)C(S)Cc2ccccc2)cc1 (centres unmarked) [Compound 12, 2-Mercapto-N-(4-methoxyphenyl)-3-phenylpropanamide]
ColH-PD
  Ki: 40 ± 10 nM
MMP-1
  inhibition at 100 µM: < 10%
MMP-2
  inhibition at 100 µM: < 10%
MMP-3
  inhibition at 100 µM: < 10%
MMP-7
  inhibition at 100 µM: < 10%
MMP-8
  inhibition at 100 µM: 12 ± 2%
MMP-14
  inhibition at 100 µM: < 10%
ADAM17
  IC50: 4100 ± 100 nM
HDAC-3
  IC50: > 100000 nM
HDAC-8
  IC50: > 100000 nM
Zebrafish embryos; 2 µM
  Survival rate %: 100%
  toxicity (larvae with toxicity signs): No toxicity signs were observed
Zebrafish embryos; 30 µM
  Survival rate %: 0%
  toxicity (larvae with toxicity signs): 100%
Zebrafish embryos; 30 µM, 2 dpf
  embryo observation: imp. dev.
Zebrafish embryos; 30 µM, 3 dpf
  embryo observation: all dead
Zebrafish embryos; 50 µM
  Survival rate %: 0%
  toxicity (larvae with toxicity signs): 100%
Zebrafish embryos; 50 µM, 3 dpf
  embryo observation: all dead
Zebrafish embryos; 100 µM
  Survival rate %: 0%
  toxicity (larvae with toxicity signs): 100%
Zebrafish embryos; 100 µM, 2 dpf
  embryo observation: all dead
Zebrafish embryos; zebrafish embryos, until 120 hpf
  maximum tolerated concentration (MTC): ≤ 2 µM
[1]
  effect on A549 cells treated with ΔlasB PA14 supernatant (in words): no effect
[2]
  effect on viability of NHDF cells treated with wt PA14 supernatant (in words): Concentrations-dependent effects
G. mellonella larvae
  survival of larvae: 70 ± 5%
[3]
  effect on viability of A549 cells treated with wt PA14 supernatant (in words): Dose-dependent effect
LasB
  IC50: 700 ± 30 nM

## O=C(Nc1ccc(O)cc1)C(S)Cc1ccccc1 (centres unmarked) [Compound 13]
ColH-PD
  Ki: 100 ± 20 nM
P. aeruginosa PA14; Pseudomonas aeruginosa, P. aeruginosa PA14
  MIC: > 100 µM
P. aeruginosa PA14; at 100 μM
  reduction of bacterial growth: less than 10%
MMP-1
  inhibition at 100 µM: < 10%
MMP-2
  inhibition at 100 µM: < 10%
MMP-3
  inhibition at 100 µM: < 10%
MMP-7
  inhibition at 100 µM: < 10%
MMP-8
  inhibition at 100 µM: 19 ± 4%
MMP-14
  inhibition at 100 µM: < 10%
ADAM17
  IC50: 2300 ± 1400 nM
HDAC-3
  IC50: > 250000 nM
HDAC-8
  IC50: > 250000 nM
[4]
  IC50: > 100000 nM
[5]
  IC50: > 100000 nM
Cytotoxicity assay, A549
  IC50: > 100000 nM
[1]
  effect on A549 cells treated with ΔlasB PA14 supernatant (in words): no effect
[2]
  effect on viability of NHDF cells treated with wt PA14 supernatant (in words): Concentrations-dependent effects
[3]
  effect on viability of A549 cells treated with wt PA14 supernatant (in words): Dose-dependent effect
LasB
  IC50: 600 ± 40 nM

## Cc1ccc(CC(S)C(=O)Nc2ccccc2)cc1 (centres unmarked) [Compound 14]
ColH-PD
  inhibition at 1 µM: 69 ± 3%
LasB
  IC50: 2800 ± 300 nM

## O=C(Nc1ccccc1)C(S)Cc1ccc(O)cc1 (centres unmarked) [Compound 15]
ColH-PD
  inhibition at 1 µM: 63 ± 2%
LasB
  IC50: 7400 ± 600 nM
LasB; LasB IC50 ratio vs compound 3
  decrease in activity compared to compound 3: 15 fold

## O=C(Nc1ccccc1)C(S)Cc1ccc(O)c([N+](=O)[O-])c1 (centres unmarked) [Compound 16]
ColH-PD
  inhibition at 1 µM: 74 ± 5%
LasB
  IC50: 2500 ± 200 nM

## O=C(Nc1ccccc1)C(S)Cc1ccc(Cl)cc1 (centres unmarked) [Compound 17]
LasB
  IC50: 1100 ± 100 nM

## O=C(Nc1nccs1)C(S)Cc1ccccc1 (centres unmarked) [Compound 18]
ColH-PD
  inhibition at 1 µM: 34 ± 3%
LasB
  IC50: 1600 ± 100 nM

## COC(=O)c1ccsc1NC(=O)C(S)Cc1ccccc1 (centres unmarked) [Compound 19]
LasB
  IC50: 8000 ± 1100 nM

## O=C(Nc1cccnc1)C(S)Cc1ccccc1 (centres unmarked) [Compound 20]
LasB
  IC50: 1200 ± 40 nM

## O=C(Nc1ccccn1)C(S)Cc1ccccc1 (centres unmarked) [Compound 21]
LasB
  IC50: 3100 ± 200 nM

## O=C(Nc1ccncc1)C(S)Cc1ccccc1 (centres unmarked) [Compound 22]
LasB
  IC50: 4900 ± 500 nM

## COc1ccc2nc(NC(=O)C(S)Cc3ccccc3)sc2c1 (centres unmarked) [Compound 24]
ColH-PD
  Ki: 28000 ± 1000 nM
[1]
  effect on A549 cells treated with ΔlasB PA14 supernatant (in words): no effect
[3]
  effect on viability of A549 cells treated with wt PA14 supernatant (in words): Dose-dependent effect
[6]
  viability at 50 µM: 80 ± 15%
LasB
  IC50: 1000 ± 100 nM

## O=C(Nc1nc2ccc(Cl)cc2s1)C(S)Cc1ccccc1 (centres unmarked) [Compound 25]
LasB
  IC50: 2400 ± 200 nM

## O=C(Nc1nc2ccccc2[nH]1)C(S)Cc1ccccc1 (centres unmarked) [Compound 26]
LasB; compared to compound 23
  inhibitory activity against LasB (in words): dramatic decrease in the inhibitory activity

## CC(C)C[C@H](NP(=O)(O)O[C@@H]1O[C@@H](C)[C@H](O)[C@@H](O)[C@H]1O)C(=O)N[C@@H](Cc1c[nH]c2ccccc12)C(=O)O [Pam, phosphoramidon, reference compound]
[2]
  cell integrity and morphology of NHDF cells (bright-field imaging): cell integrity and morphology were maintained
[3]
  cell integrity and morphology of A549 cells (bright-field imaging): cell integrity and morphology were maintained
